Like-named read-outs stand apart in the source and are kept apart here.
Experiments:
WT DaCld = WT DaCld (Dechloromonas aromatica, UniProt Q47CX0); test: Equilibrium binding of ligands, spectrophotometric titration, WT DaCld
DaCld(R183A) = DaCld(R183A) (Dechloromonas aromatica, UniProt Q47CX0, R217A); test: biochemical; format: binding
DaCld(R183Q) = DaCld(R183Q) (Dechloromonas aromatica, UniProt Q47CX0, R217Q); test: biochemical; format: binding
DaCld(R183K) = DaCld(R183K) (Dechloromonas aromatica, UniProt Q47CX0, R217K); test: biochemical; format: binding
Sequence of DaCld(R183K) (Q47CX0 35-282 R217K): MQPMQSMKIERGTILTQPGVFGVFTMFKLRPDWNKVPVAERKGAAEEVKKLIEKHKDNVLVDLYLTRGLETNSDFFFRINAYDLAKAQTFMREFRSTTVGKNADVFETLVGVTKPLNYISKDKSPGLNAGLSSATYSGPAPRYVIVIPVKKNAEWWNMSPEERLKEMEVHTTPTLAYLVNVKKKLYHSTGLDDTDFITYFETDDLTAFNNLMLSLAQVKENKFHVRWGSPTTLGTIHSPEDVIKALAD

[1] = cited from earlier work

Sequence of WT DaCld (Q47CX0 32-282): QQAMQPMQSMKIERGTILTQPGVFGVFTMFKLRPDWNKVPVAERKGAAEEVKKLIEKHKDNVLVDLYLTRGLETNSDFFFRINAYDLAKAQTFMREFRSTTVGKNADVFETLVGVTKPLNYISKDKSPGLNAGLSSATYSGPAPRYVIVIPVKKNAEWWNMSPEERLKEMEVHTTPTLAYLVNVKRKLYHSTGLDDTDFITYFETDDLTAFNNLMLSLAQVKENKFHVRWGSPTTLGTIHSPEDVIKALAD
Sequence of DaCld(R183A) (Q47CX0 35-282 R217A): as the sequence (Q47CX0 35-282 R217K) above, with K183A counted along it
Sequence of DaCld(R183Q) (Q47CX0 35-282 R217Q): as the sequence (Q47CX0 35-282 R217K) above, with K183Q counted along it

Question: For `[N-]=[N+]=[N-]` [N3^–, azide], which Kd (WT DaCld; read-out: Maximal KD, pH 7) is on record?
Answer: Its Kd is 8.3 ± 0.1 µM.

Question: For `c1c[nH]cn1` [imidazole], which Kd (DaCld(R183A)) is on record?
Answer: The Kd was 21 ± 1 µM.

Question: And the “pKa1 of pKD versus pH curve” value (DaCld(R183A))?
Answer: The value was 6.8 ± 0.1.

Question: What about the Kd (WT DaCld) of the same compound?
Answer: The Kd was 9.6 ± 0.3 µM.

Question: And the Kd (DaCld(R183Q))?
Answer: Its Kd is 27 ± 1 µM.

Question: And the “pKa1 of pKD versus pH curve” value (DaCld(R183Q))?
Answer: The value was 6.7 ± 0.1.

Question: And the Kd (DaCld(R183K))?
Answer: The Kd was 18 ± 1 µM.

Question: With Myoglobin as the compound, how does the reduction potential [1] read?
Answer: Its reduction potential is 46 mV.

From paper PMC3369218 (Biochemistry, 2012)
